Measurements: US20260274892A1, “MACROCYCLIC BROAD SPECTRUM ANTIBIOTICS” (RQx Pharmaceuticals, Inc., priority 2017, published 2026)

Assays:
[1] = tested on: Methicillin Resistant Staphylococcus aureus strain USA 200; experiment: Minimum inhibitory concentration (MIC), CLSI broth micro-dilution, S. aureus; assay type: cell-based; settings: Staphylococcus aureus, MRSA / USA200; Table 6; MRSA USA 200; cation adjusted Mueller Hinton Broth + 0.002% Tween-80; 35° C., 22 hours
In short: (§1)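 Colonies grown 20 h at 35° C on Trypticase Soy agar (MRSA) or Luria agar (E. coli) were suspended in cation-adjusted Mueller Hinton broth with 0.002% Tween-80. Suspensions were added at OD600 0.0005 to 10-point twofold compound dilutions, then incubated 22 h at 35° C.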

[2] = tested on: Escherichia coli ATCC 25922; experiment: Minimum inhibitory concentration (MIC), CLSI broth micro-dilution, E. coli; assay type: cell-based; settings: Escherichia coli, ATCC25922, 22 h, Table 6, cation adjusted Mueller Hinton Broth + 0.002% Tween-80, 35° C.
In short: as §1

| SMILES | MIC [1] [µM] | MIC [2] [µM] |
| --- | --- | --- |
| CCCCc1ccc(Oc2ccc(C(=O)N[C@@H](CCN)C(=O)N(C)[C@@H]3C(=O)N[C@@H](C)C(=O)N[C@H](C(=O)NCC#N)Cc4ccc(OCCN)c(c4)-c4cc3ccc4OCCN)c(Cl)c2)cc1 (racemic) [Compound 377, rac-(8S,11S,14S)-3,18-bis(2-aminoethoxy)-N-(cyanomethyl)-11-methyl-14-[methyl-[rac-(2S)-4-amino-2-[[4-(4-butylphenoxy)-2-chloro-benzoyl]amino]butanoyl]amino]-10,13-dioxo-9,12-diazatricyclo[13.3.1.12,6]icosa-1(18),2(20),3,5,15(19),16-hexaene-8-carboxamide] | 0.031 | 0.5 |
| CCCCc1ccc(Oc2ccc(C(=O)N[C@@H](CCN)C(=O)N(C)[C@@H]3C(=O)N[C@@H](C)C(=O)N[C@H](C(=O)NCC#N)Cc4ccc(OCCN)c(c4)-c4cc3ccc4OCCN)c(Cl)c2)cc1CCCC (racemic) [Compound 378, rac-(8S,11S,14S)-3,18-bis(2-aminoethoxy)-N-(cyanomethyl)-11-methyl-14-[methyl-[rac-(2S)-4-amino-2-[[2-chloro-4-(3,4-dibutylphenoxy)benzoyl]amino]butanoyl]amino]-10,13-dioxo-9,12-diazatricyclo[13.3.1.12,6]icosa-1(18),2(20),3,5,15(19),16-hexaene-8-carboxamide] | 0.031 | 0.38 |
| CCCCCCCc1ccc(C(=O)N[C@@H](CCN)C(=O)N(C)[C@@H]2C(=O)N[C@@H](C)C(=O)N[C@H](C(=O)NCC#N)Cc3ccc(OCCN)c(c3)-c3cc2ccc3OCCN)c(OCC(=O)O)c1 (racemic) [Compound 379, 2-[5-heptyl-2-[[rac-(1S)-3-amino-1-[methyl-[rac-(7S,10S,13S)-3,18-bis(2-aminoethoxy)-13-(cyanomethylcarbamoyl)-10-methyl-8,11-dioxo-9,12-diazatricyclo[13.3.1.12,6]icosa-1(19),2,4,6(20),15,17-hexaen-7-yl]carbamoyl]propyl]carbamoyl]phenoxy]acetic acid] | 0.26 | 1 |
| CCCCCCOc1ccc(-c2cc(-c3ccc(C(=O)N[C@@H](CCN)C(=O)N(C)[C@@H]4C(=O)N[C@@H](C)C(=O)N[C@H](C(=O)NCC#N)Cc5ccc(OCCN)c(c5)-c5cc4ccc5OCCN)cc3)no2)cc1 (racemic) [Compound 380, rac-(8S,11S,14S)-3,18-bis(2-aminoethoxy)-N-(cyanomethyl)-11-methyl-14-[methyl-[rac-(2S)-4-amino-2-[[4-[5-(4-hexoxyphenyl)isoxazol-3-yl]benzoyl]amino]butanoyl]amino]-10,13-dioxo-9,12-diazatricyclo[13.3.1.12,6]icosa-1(18),2(20),3,5,15(19),16-hexaene-8-carboxamide] | 0.045 | 0.48 |
| CCCCCc1ccc(-c2nc(C)c(C(=O)N[C@@H](CCN)C(=O)N(C)[C@@H]3C(=O)N[C@@H](C)C(=O)N[C@H](C(=O)NCC#N)Cc4ccc(OCCN)c(c4)-c4cc3ccc4OCCN)o2)cc1 (racemic) [Compound 381, 4-methyl-2-(4-pentylphenyl)-N-[rac-(1S)-3-amino-1-[methyl-[rac-(7S,10S,13S)-3,18-bis(2-aminoethoxy)-13-(cyanomethylcarbamoyl)-10-methyl-8,11-dioxo-9,12-diazatricyclo[13.3.1.12,6]icosa-1(19),2,4,6(20),15,17-hexaen-7-yl]carbamoyl]propyl]oxazole-5-carboxamide] | 0.067 | 4.3 |
| CCCCCc1ccc(-c2nc(C)c(C(=O)N[C@H](CCN)C(=O)N(C)[C@@H]3C(=O)N[C@@H](C)C(=O)N[C@H](C(=O)NCC#N)Cc4ccc(OCCN)c(c4)-c4cc3ccc4OCCN)o2)cc1 (racemic) [Compound 382, 4-methyl-2-(4-pentylphenyl)-N-[rac-(1R)-3-amino-1-[methyl-[rac-(7S,10S,13S)-3,18-bis(2-aminoethoxy)-13-(cyanomethylcarbamoyl)-10-methyl-8,11-dioxo-9,12-diazatricyclo[13.3.1.12,6]icosa-1(19),2,4,6(20),15,17-hexaen-7-yl]carbamoyl]propyl]oxazole-5-carboxamide] | 0.4 | 4.3 |
| C[C@@H]1NC(=O)[C@@H](N(C)C(=O)[C@H](CCN)NC(=O)c2ccn(-c3ccc(C(C)(C)C)cc3)c(=O)c2)c2ccc(OCCN)c(c2)-c2cc(ccc2OCCN)C[C@@H](C(=O)NCC#N)NC1=O (racemic) [Compound 383, rac-(8S,11S,14S)-3,18-bis(2-aminoethoxy)-N-(cyanomethyl)-11-methyl-14-[methyl-[rac-(2S)-4-amino-2-[[1-(4-tert-butylphenyl)-2-oxo-pyridine-4-carbonyl]amino]butanoyl]amino]-10,13-dioxo-9,12-diazatricyclo[13.3.1.12,6]icosa-1(18),2(20),3,5,15(19),16-hexaene-8-carboxamide] | 0.1 | 1.1 |
| C[C@@H]1NC(=O)[C@@H](N(C)C(=O)[C@H](CCN)NC(=O)c2cnn(-c3ccc(C(C)(C)C)cc3)c(=O)c2)c2ccc(OCCN)c(c2)-c2cc(ccc2OCCN)C[C@@H](C(=O)NCC#N)NC1=O (racemic) [Compound 384, rac-(8S,11S,14S)-3,18-bis(2-aminoethoxy)-N-(cyanomethyl)-11-methyl-14-[methyl-[rac-(2S)-4-amino-2-[[1-(4-tert-butylphenyl)-6-oxo-pyridazine-4-carbonyl]amino]butanoyl]amino]-10,13-dioxo-9,12-diazatricyclo[13.3.1.12,6]icosa-1(18),2(20),3,5,15(19),16-hexaene-8-carboxamide] | 0.033 | 0.4 |

The next lines start with the values.

| MIC [1] [µM] | MIC [2] [µM] | SMILES |
| --- | --- | --- |
| 0.031 | 0.19 | Cc1cc(-c2ccc(C(C)(C)C)cc2)cc(C)c1C(=O)N[C@@H](CCN)C(=O)N(C)[C@@H]1C(=O)N[C@@H](C)C(=O)N[C@H](C(=O)NCC#N)Cc2ccc(OCCN)c(c2)-c2cc1ccc2OCCN (racemic) [Compound 370, rac-(8S,11S,14S)-3,18-bis(2-aminoethoxy)-N-(cyanomethyl)-11-methyl-14-[methyl-[rac-(2S)-4-amino-2-[[4-(4-tert-butylphenyl)-2,6-dimethyl-benzoyl]amino]butanoyl]amino]-10,13-dioxo-9,12-diazatricyclo[13.3.1.12,6]icosa-1(18),2(20),3,5,15(19),16-hexaene-8-carboxamide] |
| 0.031 | 0.19 | C[C@@H]1NC(=O)[C@@H](N(C)C(=O)[C@H](CCN)NC(=O)c2ccc(-c3ccc(C(C)(C)C)cc3)cc2Cl)c2ccc(OCCN)c(c2)-c2cc(ccc2OCCN)C[C@@H](C(=O)NCC#N)NC1=O (racemic) [Compound 371, rac-(8S,11S,14S)-3,18-bis(2-aminoethoxy)-N-(cyanomethyl)-11-methyl-14-[methyl-[rac-(2S)-4-amino-2-[[4-(4-tert-butylphenyl)-2-chloro-benzoyl]amino]butanoyl]amino]-10,13-dioxo-9,12-diazatricyclo[13.3.1.12,6]icosa-1(18),2(20),3,5,15(19),16-hexaene-8-carboxamide] |
| 0.023 | 0.38 | C[C@@H]1NC(=O)[C@@H](N(C)C(=O)[C@H](CCN)NC(=O)c2ccc(-c3ccc(C(C)(C)C)cc3)cc2N)c2ccc(OCCN)c(c2)-c2cc(ccc2OCCN)C[C@@H](C(=O)NCC#N)NC1=O (racemic) [Compound 372, rac-(8S,11S,14S)-3,18-bis(2-aminoethoxy)-N-(cyanomethyl)-11-methyl-14-[methyl-[rac-(2S)-4-amino-2-[[2-amino-4-(4-tert-butylphenyl)benzoyl]amino]butanoyl]amino]-10,13-dioxo-9,12-diazatricyclo[13.3.1.12,6]icosa-1(18),2(20),3,5,15(19),16-hexaene-8-carboxamide] |
| 0.031 | 0.5 | Cc1cc(Oc2ccc(C(C)(C)C)cc2)cc(C)c1C(=O)N[C@@H](CCN)C(=O)N(C)[C@@H]1C(=O)N[C@@H](C)C(=O)N[C@H](C(=O)NCC#N)Cc2ccc(OCCN)c(c2)-c2cc1ccc2OCCN (racemic) [Compound 375, rac-(8S,11S,14S)-3,18-bis(2-aminoethoxy)-N-(cyanomethyl)-11-methyl-14-[methyl-[rac-(2S)-4-amino-2-[[4-(4-tert-butylphenoxy)-2,6-dimethyl-benzoyl]amino]butanoyl]amino]-10,13-dioxo-9,12-diazatricyclo[13.3.1.12,6]icosa-1(18),2(20),3,5,15(19),16-hexaene-8-carboxamide] |
| 0.016 | 0.25 | C[C@@H]1NC(=O)[C@@H](N(C)C(=O)[C@H](CCN)NC(=O)c2ccc(Oc3ccc(C(C)(C)C)cc3)cc2Cl)c2ccc(OCCN)c(c2)-c2cc(ccc2OCCN)C[C@@H](C(=O)NCC#N)NC1=O (racemic) [Compound 376, rac-(8S,11S,14S)-3,18-bis(2-aminoethoxy)-N-(cyanomethyl)-11-methyl-14-[methyl-[rac-(2S)-4-amino-2-[[4-(4-tert-butylphenoxy)-2-chloro-benzoyl]amino]butanoyl]amino]-10,13-dioxo-9,12-diazatricyclo[13.3.1.12,6]icosa-1(18),2(20),3,5,15(19),16-hexaene-8-carboxamide] |
| 0.017 | 0.27 | Cc1nc(-c2ccc(C(C)(C)C)cc2)nnc1C(=O)N[C@@H](CCN)C(=O)N(C)[C@@H]1C(=O)N[C@@H](C)C(=O)N[C@H](C(=O)NCC#N)Cc2ccc(OCCN)c(c2)-c2cc1ccc2OCCN (racemic) [Compound 385, rac-(8S,11S,14S)-3,18-bis(2-aminoethoxy)-N-(cyanomethyl)-11-methyl-14-[methyl-[rac-(2S)-4-amino-2-[[3-(4-tert-butylphenyl)-5-methyl-1,2,4-triazine-6-carbonyl]amino]butanoyl]amino]-10,13-dioxo-9,12-diazatricyclo[13.3.1.12,6]icosa-1(18),2(20),3,5,15(19),16-hexaene-8-carboxamide] |
